Data: paper PMC9413440, “An Iterative Approach Guides Discovery of the FabI Inhibitor Fabimycin, a Late-Stage Antibiotic Candidate with In Vivo Efficacy against Drug-Resistant Gram-Negative Infections” (ACS Central Science, 2022)
In brackets after ≈: the same amount, converted by molar mass. Like-named read-outs stand apart in the source and are kept apart here.

Experiments:
A. baumannii 19606 = assay: MIC, broth microdilution (CLSI); format: cell-based; conditions: Acinetobacter baumannii
Summary of the method: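 Broth microdilution per CLSI guidelines in cation-adjusted Mueller Hinton broth, run in biological triplicate unless noted otherwise.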

Streptococcus pneumoniae = assay: MIC, Streptococcus pneumoniae strains; format: cell-based
Protocol: (§1) II. Materials and Methods for Biological Experiments
(§2) S. aureus ATCC 29213 and E. coli MG1655 were obtained from the American Type Culture Collection (ATCC). E. coli BW25113 and E. coli JW5503 were obtained from the Keio Collection. AR-bank strains were obtained from the Centers for Disease Control and Prevention and FDA Antibiotic Resistance Isolate Bank.
(§3) Antimicrobial susceptibility tests
(§4) Susceptibility testing was performed in biological triplicate, unless noted otherwise, using the micro-dilution broth method as outlined by the Clinical and Laboratory Standards Institute. Bacteria were cultured with cation-adjusted Mueller Hinton broth (Sigma Aldrich, catalogue number: 90922). […]
NH3: m/z 391.2 → 171.0. Fabimycin: m/z 405.3 → 145.3. Power analysis was not used to determine the number of replicates. Error bars represent the standard error of the mean of three biological replicates. All compounds evaluated in biological assays were ≥95% pure.

[1] = test system: K. pneumoniae clinical isolates (n=100); assay: MIC50/MIC90, clinical isolate panel; format: cell-based; conditions: Klebsiella pneumoniae; K. pneumoniae (n=100) clinical isolates
Source text: Figure 4 Antimicrobial activity of fabimycin against clinical isolates. (A) The susceptibility of clinical isolates (Gram-negative species and S. aureus) to fabimycin, Debio-1452-NH3, and Debio-1452. MICs performed in biological triplicate. (B) Further exploration of the breadth of fabimycin’s antibacterial activity against diverse clinical isolate panels of K. pneumoniae and A. baumannii, as compared to levofloxacin. MICs performed in biological duplicate.
as §1, §2, §3, §4
Error bars represent the standard error of the mean of three biological replicates. All compounds evaluated in biological assays were ≥95% pure.

[2] = test system: A. baumannii clinical isolates (n=100); assay: MIC50/MIC90, clinical isolate panel; format: cell-based; conditions: Acinetobacter baumannii
[3] = test system: panel of 10 clinical isolates (two E. coli, four K. pneumoniae, four A. baumannii); assay: MIC, Gram-negative clinical isolate challenge panel; format: cell-based; conditions: Gram-negative clinical isolates; fabimycin relative to (R)-7
E. coli MG1655 = assay: Serial passaging; format: cell-based, Escherichia coli; conditions: E. coli MG1655, subinhibitory concentration, 21 days
Protocol: Serial passaging procedure was done as reported in literature.5 Briefly, E. coli MG1655 cells were grown in 0.6 mL of MH media containing fabimycin and ciprofloxacin (control) at different concentrations. Cells were added to the respective compounds at 0.25X, 0.5X, 1X, 2X, and 4X to start. At 22-24 hours the cultures were checked for growth. […]
compound at varying concentrations based off of the MIC. This serial passaging was repeated for 21 days. […]
All cells were cultured […]
at 37 °C under a 5% CO2 environment. Cell lines were authenticated by a commercial vendor and inspected visually in house. Cell lines were not tested for Mycoplasma contamination. The media was prepared by the University of Illinois School of Chemical Sciences Cell Media Facility.
(§5) H. sapiens HFF-1, A549, and HepG2 cells were seeded (3,000-6,000 cells/well) in a 96-well plate (Greiner Bio-One;

in vivo = assay: in vivo
Source text: Mouse maximum tolerated dose (MTD) of fabimycin
The protocol to assess fabimycin’s murine MTD when formulated in 20% sulfobutyl ether(7) β-cyclodextrin (SBE-β-CD) in H2O was approved by the Institutional Animal Care and Use Committee (IACUC) at the University of Illinois at Urbana-Champaign (protocol number: 19181). […]
from Charles River were used. Mice were randomly chosen and divided into subsequent groups. No additional randomization was used to allocate the experimental groups; blinding was not performed for subsequent quantitation.
The MTD of a single dosage of a given compound was determined before evaluating the MTD of multiple dosages. […]
weeks (single dose). The single-dose MTDs were determined first. For multiple doses, the compound was given by daily […]
highest dosage with acceptable toxicity (<20% weight loss). MTD values shown for Debio-1452-NH3 are as previously reported.3 MTD values for fabimycin when formulated in 17% Cremophor EL/3% SBE-β-CD were drawn from infection models conducted with neutropenic A. baumannii-infected mice (see below). […]
River Licensee) weighing 18 ± 2 grams were used.10 All animals were specific pathogen free. Mice were rendered neutropenic via cyclophosphamide (CP) administration by two intraperitoneal (IP) injections following a standard method for mouse thigh infection models.11 The first CP dose, 150 mg/kg, was administered at four days before infection (Day –4); and the second, 100 mg/kg, at 24 h before infection (Day –1), prior to infection on Day 0.

HFF-1, A549, HepG2 cells = conditions: 72 h
Protocol: HFF-1 cells (newborn) were obtained from the ATCC. HFF-1 cells were grown in Dulbecco’s Modified Eagle’s minimum essential medium with 15% fetal bovine serum (Gemini Benchmark; catalogue number: 100-106), 100 µg/mL penicillin and 100 µg/mL streptomycin. A549 cells ([…], adult) were obtained from the ATCC. A549 cells were grown in Roswell Park Memorial Institute (RPMI) media with 100 µg/mL penicillin and 10% fetal bovine serum (FBS). HepG2 cells were authenticated by the University of Arizona Genetics Core using an autosomal STR profile. HepG2 cells were grown in Dulbecco’s Modified Eagle’s minimum essential medium with 10% fetal bovine serum. All cells were cultured at 37 °C under a 5% CO2 environment. Cell lines were authenticated by a commercial vendor and inspected visually in house. Cell lines were not tested for Mycoplasma contamination. The media was prepared by the University of Illinois School of Chemical Sciences Cell Media Facility.
as §5

[4] = A. baumannii (n=100) clinical isolates

Structure (SMILES): Cc1c(CN(C)C(=O)/C=C/c2cnc3c(c2)CC[C@H](N)C(=O)N3)oc2ccccc12 [fabimycin]
- MIC (A. baumannii 19606): 2 mg/L (≈ 4.94 µM)
- MIC (Streptococcus pneumoniae; S. pneumoniae 202-5872): >128 mg/L
- MIC (Streptococcus pneumoniae; S. pneumoniae 202-6154): >128 mg/L
- MIC (Streptococcus pneumoniae; S. pneumoniae 202-6515): >128 mg/L
- MIC (Streptococcus pneumoniae; S. pneumoniae 202-7382): >128 mg/L
- MIC (Streptococcus pneumoniae; S. pneumoniae CO314937): >128 mg/L
- MIC (Streptococcus pneumoniae; S. pneumoniae MD77773): >128 mg/L
- MIC (Streptococcus pneumoniae; S. pneumoniae MD77841): >128 mg/L
- MIC (Streptococcus pneumoniae; S. pneumoniae NYO5984): >128 mg/L
- MIC (Streptococcus pneumoniae; Streptococcus pneumoniae, ATCC49619, S. pneumoniae ATCC 49619, read-out: MIC): > 128 mg/L
- MIC (Streptococcus pneumoniae; Streptococcus pneumoniae, S. pneumoniae NYO5986, read-out: MIC): > 128 mg/L
- MIC50 [1]: 1 mg/L (≈ 2.47 µM)
- MIC90 [1]: 4 mg/L (≈ 9.89 µM)
- MIC50 [2, 4]: 4 mg/L (≈ 9.89 µM)
- MIC90 [2, 4]: 8 mg/L (≈ 19.8 µM)
- MIC ([2]; the 1 pan-resistant strain of the 100 A. baumannii clinical isolates): 1 mg/L (≈ 2.47 µM)
- difference in MIC activity between the two enantiomers [3]: 64–128 fold
- increase in the MIC after serial passaging (E. coli MG1655): 8 fold
- MTD (in vivo; BALB/c, mouse, iv): 100 mg/kg
- MTD at 1 day (in vivo; BALB/c, mouse, iv): 75 mg/kg
- MTD at 3 d (in vivo; BALB/c, mouse, iv): 75 mg/kg
- MTD at 2 weeks (in vivo; female, C57BL/6, mouse, ip): > 200 mg/kg
- MTD at 1 day (in vivo; female, C57BL/6, mouse, ip): > 200 mg/kg
- MTD at 5 d (in vivo; female, C57BL/6, mouse, ip): > 100 mg/kg
- cytotoxicity against human cell lines (HFF-1, A549, HepG2 cells): less cytotoxic relative to Debio-1452-NH3
